The values below come from patent US10085449B2, “N-[1-((6-chloropyridin-3-yl)methyl)pyridin-2(1H)-ylidene]-2,2,2- trifluoroacetamide for control of agricultural/horticultural pests” (priority 2010, dated 2018).

Like-named read-outs stand apart in the source and are kept apart here.

What all share (format): in vivo
For data set [1], the system named is small brown planthopper. Nature of the data set: whole plant or invertebrate. The following applies: Laodelphax striatellus, in Triticum aestivum, 96 h. As for the experimental part:
Wheat seedling roots 48 hours after sowing were treated with solutions of the inventive compounds at a predetermined concentration prepared to 10% acetone/water. After allowing the roots to absorb the chemical for 72 hours, ten second-instar small brown planthopper larvae were released onto each seedling. The treated seedlings and larvae were then held in an incubation chamber at 25° C. (16-hour period of light, 8-hour dark period). Four days after released, the numbers of live and dead insects were counted, and the mortality was calculated from the following formula. The test was carried out as two replications. Mortality (%)=[number of dead insects/(number of live insects+number of dead insects)]×100

The test system of a further data set is cotton aphid. Nature of the data set: whole plant or invertebrate. The following applies: Aphis gossypii, foliar. As to the method:
(§1) Leaf discs 2.0 cm in diameter were cut from cucumber plants grown in pots, and these were sprayed with solutions of the inventive compounds at a predetermined concentration prepared to 50% acetone/water (containing 0.05% Tween 20). The treated leaf discs were air dried, following which first-instar larvae were released onto the discs. The leaf discs and larvae were then held in an incubation chamber at 25° C. (16-hour period of light, 8-hour dark period). Three days after released, the numbers of live and dead insects were counted, and the mortality was calculated from the following formula. This was a two-replication test. Mortality (%)=[number of dead insects/(number of live insects+number of dead insects)]×100

The next data set deals with diamondback moth. Nature of the data set: whole plant or invertebrate. Particulars: Plutella xylostella, foliar. As to the method:
as §1, with “5.0” for “2.0”, “cabbage” for “cucumber”, “second-instar” for “first-instar”

The test system of data set [2] is small brown planthopper. Nature of the data set: whole plant or invertebrate. The following applies: Laodelphax striatellus, 72 h. As to the method: (§2) Rice seedlings grown in pots were subjected to soil drenching treatment with solutions of the inventive compounds at a predetermined concentration prepared to 10% acetone/water. Three days following treatment, ten second-instar small brown planthopper larvae were released onto each seedling. The treated seedlings and larvae were then held in an incubation chamber at 25° C. (16-hour period of light, 8-hour dark period). Three days after released, the numbers of live and dead insects were counted, and the mortality was calculated from the following formula. The test was carried out as two replications. Mortality (%)=[number of dead insects/(number of live insects+number of dead insects)]×100

In data set [3] the test system is brown rice planthopper having a low susceptibility to insecticides. Further details: key to Brown rice planthopper, Kumamoto low susceptibility (rice soil drenching), effect: mortality %, dead/(live+dead) ×100. The following applies: rice soil drenching, 0.05 mg/pot. As for the experimental part: as §2, with “days after” for “days following”, “second-instar” for “second-instar small”, “brown rice” for “brown”, “larvae having a low susceptibility to insecticides” for “larvae”, “The” for “The treated”, “and insects” for “and larvae”
The pests used in this test were insects that had been raised indoors for successive generations over a long period of time (susceptible line), and insects that had been raised indoors for successive generations after being collected (I) in 2007 within Kumamoto Prefecture and (II) in 2005 within Fukuoka Prefecture (field-collected lines).

The test system of another data set is western flower thrips. Nature of the data set: whole plant or invertebrate. Particulars: Frankliniella occidentalis, foliar. As for the experimental part: as §1, with “2.8” for “2.0”, “bean” for “cucumber”
The next data set concerns common cutworm. Nature of the data set: whole plant or invertebrate. Particulars: foliar application, 500 ppm. As for the experimental part: as §1, with “5.0” for “2.0”, “cabbage” for “cucumber”, “third-instar” for “first-instar”
Setting [4] is: rice soil drenching, 0.05 mg/pot (Table 13), read-out: Small brown planthopper (rice soil drenching), effect.
Where [5] appears, read: soil, read-out: Small brown planthopper (rice soil drenching), effect.
Where [6] appears, read: rice soil drenching, 0.01 mg/pot (Table 13), read-out: Small brown planthopper (rice soil drenching), effect.
The mark [7] stands for this setting: read-out: Insecticidal effects (mortality), small brown planthopper second-instar larvae.
Setting [8] is: read-out: Insecticidal effects (mortality), western flower thrips first-instar larvae.
Setting [9] is: read-out: Insecticidal effects (mortality), cotton aphid first-instar larvae.
The mark [10] stands for this setting: read-out: Insecticidal effects (mortality), diamondback moth second-instar larvae.
[11] abbreviates: soil, read-out: Insecticidal effects (mortality), small brown planthopper second-instar larvae.

For the compound `O=C(N=c1ccccn1Cc1ccc(Cl)nc1)C(Cl)(Cl)Cl` [Compound 235, 2,2,2-trichloro-N-[1-((6-chloropyridin-3-yl)methyl)pyridin-2(1H)-ylidene]acetamide], the mortality (as a rule, the share of the test organisms that died) at 20 µg/seedling in the data set on small brown planthopper [1] is no less than 80%. In the data set on cotton aphid (in Cucumis sativus, 72 h), this compound showed a mortality at 20 ppm of no less than 80%, a mortality at 100 ppm of no less than 80% and a mortality at 500 ppm of no less than 80%. In the data set with diamondback moth (in Brassica oleracea, 72 h), this compound returned a mortality at 100 ppm of no less than 80% and a mortality at 500 ppm of no less than 80%.

With `CC(=O)/N=c1\ccccn1Cc1ccc(Cl)nc1` [Comparative Example 3, N-[1-((6-chloropyridin-3-yl)methyl)pyridin-2(2H)-ylidene]acetamide, reference compound], in the data set on small brown planthopper [2] (setting [4]), the pest or weed control at 0.05 mg/pot came out at 10%.

On to `O=C(C(C(=O)C(F)(F)F)=C1NCCN1Cc1ccc(Cl)nc1)C(F)(F)F` [Comparative Example 6, 3-[1-((6-chloropyridin-3-yl)methyl)imidazolidin-2-ylidene]-1,1,1,5,5,5-hexafluoropentan-2,4-dione, reference compound], for which the “Brown rice planthopper, Kumamoto low susceptibility (rice soil drenching), effect” value (shortened to “Brown rice planthopper”) in data set [3] is reported as 25. In the data set on small brown planthopper [2] (setting [5]), the pest or weed control at 0.01 mg/pot is 20% and the pest or weed control at 0.05 mg/pot worked out at 100%.

Consider `O=C(/C=C1\SCCN1Cc1ccc(Cl)nc1)C(F)(F)F` [Comparative Example 5, 3-[3-((6-chloropyridin-3-yl)methyl)thiazolidin-2-ylidene]-1,1,1-trifluoropropan-2-one, reference compound], for which the “Brown rice planthopper” value in data set [3] was determined as 25. Further, the pest or weed control at 0.01 mg/pot in the data set with small brown planthopper [2] (setting [6]) is 15%. Besides, in the data set with small brown planthopper [2] (setting [4]), the pest or weed control at 0.05 mg/pot is 95%.

In the case of `O=C(/N=C1\NCCN1Cc1ccc(Cl)nc1)C(F)(F)F` [Comparative Example 7, N-[1-((6-chloropyridin-3-yl)methyl)imidazolidin-2-ylidene]-2,2,2-trifluoroacetamide, reference compound], in data set [3], the “Brown rice planthopper” value came to 20. Moreover, in the data set on small brown planthopper [2] (setting [6]), the pest or weed control at 0.01 mg/pot turned out to be 5%. The pest or weed control at 0.05 mg/pot in the data set on small brown planthopper [2] (setting [4]) is 63%.

On to `O=C(/N=C1\SCCN1Cc1ccc(Cl)nc1)C(F)(F)F` [Comparative Example 8, N-[3-((6-chloropyridin-3-yl)methyl)thiazolidin-2-ylidene]-2,2,2-trifluoroacetamide, reference compound], for which, in the data set on small brown planthopper [2] (setting [4]), the pest or weed control at 0.05 mg/pot came to 20%.

Take `CC(c1ccc(Cl)nc1)n1ccccc1=NC(=O)C(F)(F)F` (centres unmarked) [Compound 237, N-[1-(1-(6-chloropyridin-3-yl)ethyl)pyridin-2(1H)-ylidene]-2,2,2-trifluoroacetamide]: the mortality at 20 µg/seedling in the data set with small brown planthopper [1] was no less than 80%. Besides, in the data set on small brown planthopper [1] (setting [7]), the mortality at 0.5 mg/seedling worked out at 50%, the mortality at 2 mg/seedling came out at 100% and the mortality at 20 mg/seedling was 100%. In the data set on western flower thrips (72 h), this compound registered a mortality at 500 ppm of no less than 80%. The mortality at 500 ppm in the data set with western flower thrips (setting [8]) turned out to be 90%. Further, in the data set on cotton aphid (setting [9]), the mortality at 20 ppm was found to be 85%, the mortality at 100 ppm turned out to be 100% and the mortality at 500 ppm was 100%. Moreover, in the data set on cotton aphid (in Cucumis sativus, 72 h), the mortality at 20 ppm is no less than 80%, the mortality at 100 ppm is no less than 80% and the mortality at 500 ppm is no less than 80%. Further, in the data set on diamondback moth (setting [10]), the mortality at 20 ppm was determined as 100%, the mortality at 100 ppm came to 100% and the mortality at 500 ppm was determined as 100%. In the data set with diamondback moth (in Brassica oleracea, 72 h), this compound had a mortality at 100 ppm of no less than 80% and a mortality at 500 ppm of no less than 80%. Moreover, the “Insecticidal effects (mortality), common cutworm third-instar larvae” value with common cutworm is reported as 33. Also, the pest or weed control at 0.01 mg/pot with small brown planthopper [2] (setting [6]) is 75%. For the same compound, the pest or weed control at 0.05 mg/pot in the data set with small brown planthopper [2] (setting [4]) worked out at 100%. The compound further showed a mortality at 0.05 mg/seedling in the data set on small brown planthopper [2] (soil) of no less than 80%. In the data set on small brown planthopper [2] (setting [11]), the mortality at 0.01 mg/pot turned out to be 75% and the mortality at 0.05 mg/pot was 100%.

In turn, `O=C(N=c1ccccn1Cc1ccc(Cl)nc1)C(Br)Br` [Compound 241, 2,2-dibromo-N-[1-((6-chloropyridin-3-yl)methyl)pyridin-2(1H)-ylidene]-acetamide] registered a mortality at 20 µg/seedling in the data set on small brown planthopper [1] of no less than 80%. In the data set on cotton aphid (in Cucumis sativus, 72 h), this compound showed a mortality at 20 ppm of no less than 80% and a mortality at 100 ppm of no less than 80%. Moreover, the mortality at 500 ppm in the data set on diamondback moth (in Brassica oleracea, 72 h) is no less than 80%.

For the compound `O=C(N=c1ccccn1Cc1ccc(Cl)nc1)C(F)F` [Compound 238, N-[1-((6-chloropyridin-3-yl)methyl)pyridin-2(1H)-ylidene]-2,2-difluoroacetamide], the mortality at 20 µg/seedling with small brown planthopper [1] is no less than 80%. Besides, in the data set with small brown planthopper [1] (setting [7]), the mortality at 0.063 mg/seedling turned out to be 25%, the mortality at 0.25 mg/seedling turned out to be 100%, the mortality at 0.5 mg/seedling was 100% and the mortality at 2 mg/seedling worked out at 100%. Also, the mortality at 20 mg/seedling in the data set on small brown planthopper [1] (setting [7]) was 100%. The mortality at 100 ppm in the data set with western flower thrips (72 h) was no less than 80%. Further, the mortality at 100 ppm with western flower thrips (setting [8]) is 95%. Besides, in the data set on cotton aphid (setting [9]), the mortality at 1.25 ppm came out at 100%, the mortality at 5 ppm was 100%, the mortality at 20 ppm was found to be 100% and the mortality at 100 ppm is 100%. In the data set with cotton aphid (in Cucumis sativus, 72 h), this compound showed a mortality at 20 ppm of no less than 80% and a mortality at 100 ppm of no less than 80%. Moreover, in the data set with diamondback moth (setting [10]), the mortality at 20 ppm worked out at 60% and the mortality at 100 ppm was 100%. In addition, in the data set with diamondback moth (in Brassica oleracea, 72 h), the mortality at 100 ppm was no less than 80%. For the same compound, the “Insecticidal effects (mortality), common cutworm third-instar larvae” value in the data set with common cutworm is given as 0. For the same compound, the pest or weed control at 0.005 mg/pot in the data set with small brown planthopper [2] (rice soil drenching, 0.005 mg/pot (Table 13), read-out: Small brown planthopper (rice soil drenching), effect) came to 33%. Further, the pest or weed control at 0.01 mg/pot with small brown planthopper [2] (setting [6]) was 100%. Also, the pest or weed control at 0.05 mg/pot with small brown planthopper [2] (setting [4]) came out at 100%. The mortality at 0.05 mg/seedling with small brown planthopper [2] (soil) was no less than 80%. For the same compound, in the data set with small brown planthopper [2] (setting [11]), the mortality at 0.005 mg/pot is 33%, the mortality at 0.01 mg/pot turned out to be 100% and the mortality at 0.05 mg/pot stood at 100%.

In turn, `N#CNCc1ccc(Cl)nc1` [Compound 1 in Patent Document 1, N-[(6-chloropyridin-3-yl)methyl]cyanamide, reference compound] returned a mortality at 500 ppm with cotton aphid (in Cucumis sativus, 72 h) of 65%.

For the compound `N#CN=c1ccccn1Cc1ccc(Cl)nc1` [Comparative Example 2, N-[1-((6-chloropyridin-3-yl)methyl)pyridin-2(1H)-ylidene]cyanamide, reference compound], the pest or weed control at 0.05 mg/pot with small brown planthopper [2] (setting [4]) was 20%.
